Experimental data from patent US10548902B1, “Telomerase enhancement potential of ecdysterone” (SAMI LABS LIMITED, priority 2018, dated 2020).

Molecular target: T1, Telomerase (Homo sapiens, UniProt O14746)
T1 construct: endogenous in cells; host or cells: PBMCs isolated from blood, stimulated with 10 μg/ml PHA
Experiment: Telomerase activity, TeloTAGGG telomerase PCR ELISA (TRAP assay) in PHA-treated PBMCs
Format: cell-based
Conditions: for % increase in Telomerase activity: PBMCs, 10 μg/ml PHA, 48 hours
Protocol: The assay was carried out using Telo TAGGG telomerase PCR ELISA kit (Roche). It allows highly specific amplification of telomerase mediated elongation products followed by detection through ELISA. In the first step telomerase adds the telomeric repeats (TTAGGG) tot eh 3′ end of the biotin labeled synthetic P1 primer. In the second step these elongation products are amplified using P2 and P1 primers generating telomerase specific 6 bp increments. PCR product is denatured and hybridized to a digioxigenin labeled telomere repeat specific detection probe. The resultant product is bound to a streptavidin specific miroplate via biotin labeled primer 1. The bound products are detected using anti digioxigenein antibody conjugated to horse radish peroxidase. The enzyme reaction is visualized using […] substrate.
2×10^5 PBMCs isolated from blood were seeded in RPMI 1640 medium in 6 well plates. Cells were treated with 10 μg/ml PHA along with different concentrations of ecdysterone/extracts containing ecdysterone. Cells were incubated in a humidified atmosphere with 5% CO2 for 48 hours. After 48 hours of incubation, cells were harvested and centrifuged at 3000 g for 10 minutes at 4° C. Supernatant was removed and PBS was added and centrifuged again. Pellet was suspended in lysis reagent on ice (TeloTAGGG™ Telomerase PCR ELISA). Suspension was retero pipetted at least thrice and incubated for 20 minutes on ice and centrifuged at 16000 g for 20 minutes at 4° C. TRAP assay followed by ELISA was performed as per manufacturer's instructions (TeloTAGGG™ Telomerase PCR ELISA, Merck).

T1 sequence (O14746 whole entry): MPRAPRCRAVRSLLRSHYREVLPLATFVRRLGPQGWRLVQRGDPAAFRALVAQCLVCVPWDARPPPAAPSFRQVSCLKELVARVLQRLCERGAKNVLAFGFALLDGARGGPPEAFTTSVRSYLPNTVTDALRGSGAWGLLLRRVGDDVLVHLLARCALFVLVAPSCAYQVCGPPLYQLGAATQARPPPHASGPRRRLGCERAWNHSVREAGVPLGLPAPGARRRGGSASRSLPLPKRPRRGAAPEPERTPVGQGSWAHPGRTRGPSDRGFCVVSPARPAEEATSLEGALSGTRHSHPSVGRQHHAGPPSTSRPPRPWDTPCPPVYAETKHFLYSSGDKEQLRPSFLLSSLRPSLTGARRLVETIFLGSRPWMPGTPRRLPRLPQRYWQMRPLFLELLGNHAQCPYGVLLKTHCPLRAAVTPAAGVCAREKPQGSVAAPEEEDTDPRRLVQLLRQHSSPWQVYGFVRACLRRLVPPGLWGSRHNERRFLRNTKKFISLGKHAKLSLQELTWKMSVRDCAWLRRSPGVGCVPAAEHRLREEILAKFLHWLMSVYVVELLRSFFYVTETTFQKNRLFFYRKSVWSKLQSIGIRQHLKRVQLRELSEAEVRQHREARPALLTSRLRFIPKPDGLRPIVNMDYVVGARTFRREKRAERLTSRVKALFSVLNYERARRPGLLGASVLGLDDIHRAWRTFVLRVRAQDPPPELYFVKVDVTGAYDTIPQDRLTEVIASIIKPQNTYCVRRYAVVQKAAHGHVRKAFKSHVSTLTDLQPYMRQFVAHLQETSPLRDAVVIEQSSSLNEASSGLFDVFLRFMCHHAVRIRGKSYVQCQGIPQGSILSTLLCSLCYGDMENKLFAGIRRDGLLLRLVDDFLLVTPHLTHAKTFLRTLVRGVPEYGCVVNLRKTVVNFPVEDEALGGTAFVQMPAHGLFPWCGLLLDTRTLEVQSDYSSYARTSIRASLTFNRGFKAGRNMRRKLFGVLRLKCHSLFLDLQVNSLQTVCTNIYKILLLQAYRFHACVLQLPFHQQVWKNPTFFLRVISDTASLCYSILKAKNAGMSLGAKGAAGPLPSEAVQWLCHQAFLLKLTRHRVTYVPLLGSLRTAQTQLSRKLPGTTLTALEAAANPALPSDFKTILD

increase in telomerase activity (in words) (concentrations of 0.062-0.25 μg/ml): significant increase
% increase in Telomerase activity (ecdysterone 0.062 μg/ml): 62.1%
% increase in Telomerase activity (ecdysterone 0.125 μg/ml): 64.7%
% increase in Telomerase activity (ecdysterone 0.25 μg/ml): 63.31%
% increase in Telomerase activity (ecdysterone 0.5 μg/ml): Nil
SMILES: CC(C)(O)CC[C@@H](O)[C@](C)(O)[C@H]1CC[C@@]2(O)C3=CC(=O)[C@@H]4C[C@@H](O)[C@@H](O)C[C@]4(C)[C@H]3CC[C@]12C [Ecdysterone, ecdysterone]
